Test systems include ACHN renal; CCRF-CEM leukemia; HCT-15 colon; IGROV1 ovarian; M14 melanoma; MOLT-4 leukemia; SK-MEL-2 melanoma; SK-MEL-5 melanoma; SK-OV-3 ovarian; SNB-19 CNS.
Common to all, as to assay: NCI anticancer screen, dose series, 48 h

Where “and” joins values, the source holds several entries; their conditions need not be identical. Identical values can stand only once.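 48-hour exposure; five concentrations; linearly interpolated endpoints. GI50 = concentration required for 50% inhibition of growth. The concentration for full growth arrest is given as TGI.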

On to `C[CH2][Sn]([CH2]C)([O]C(=O)c1cc(OC)c(OC)c(OC)c1)[O][Sn]([CH2]C)([CH2]C)[O]C(=O)c1cc(OC)c(OC)c(OC)c1`, for which the GI50 is 21.2 µM in the assay on ACHN renal; 7.78 µM in the assay on CCRF-CEM leukemia; 43 µM in the assay with HCT-15 colon; above 100 µM with IGROV1 ovarian; 32.5 µM in the assay on M14 melanoma; 25.8 µM in the assay on MOLT-4 leukemia. In addition, the GI50 is 16.3 µM with SK-MEL-2 melanoma, 74.4 µM in the assay with SK-MEL-5 melanoma, above 100 µM in the assay with SK-OV-3 ovarian and above 75.1 µM in the assay with SNB-19 CNS. In addition, the TGI in the assay with ACHN renal was 40.8 µM; in the assay on CCRF-CEM leukemia it was 33.1 µM; in the assay on HCT-15 colon, above 79 µM; in the assay on IGROV1 ovarian, above 100 µM; in the assay with M14 melanoma, above 78.9 µM; in the assay on MOLT-4 leukemia, above 85.8 µM. Besides, the TGI in the assay with SK-MEL-2 melanoma is 35.3 µM; in the assay on SK-MEL-5 melanoma, above 100 µM; in the assay with SK-OV-3 ovarian, above 100 µM; with SNB-19 CNS, above 100 µM.

Take `COc1cc(C2c3cc4c(cc3[C@@H](OCCN)[C@H]3COC(=O)C23)OCO4)cc(OC)c1O` (stereo partly drawn): the TGI in the assay on ACHN renal is 2.01 µM; in the assay with CCRF-CEM leukemia, 0.0409 µM; in the assay on HCT-15 colon, 24.7 µM; in the assay on IGROV1 ovarian, 4.55 µM; in the assay with M14 melanoma it was 3.34 µM; with MOLT-4 leukemia, 0.733 µM. Besides, the TGI was 0.883 µM with SK-MEL-2 melanoma, 1.49 µM with SK-MEL-5 melanoma, 1.48 µM in the assay on SK-OV-3 ovarian and 1.93 µM in the assay with SNB-19 CNS.

As to `O=[N+]([O-])c1ccc([I+]c2ccccc2)cc1`, the GI50 was 5.15 µM with ACHN renal; 3.21 µM in the assay on CCRF-CEM leukemia; 8.9 µM with HCT-15 colon; 1.97 µM in the assay with M14 melanoma; 3.17 µM in the assay on MOLT-4 leukemia; 2.25 µM in the assay with SK-MEL-2 melanoma. Further, the GI50 in the assay with SK-MEL-5 melanoma was 1.54 µM; with SK-OV-3 ovarian, 1.73 µM; in the assay on SNB-19 CNS it was 1.63 µM. In addition, the TGI was > 31.6 µM and 18.5 µM in the assay on ACHN renal; > 100 µM and 10.9 µM with CCRF-CEM leukemia; 18.3 µM and 23.4 µM in the assay on HCT-15 colon; 35.3 µM with IGROV1 ovarian; 16.4 µM and 4.33 µM in the assay on M14 melanoma; > 26.2 µM and 75.3 µM in the assay on MOLT-4 leukemia. In addition, the TGI is 7.47 µM with SK-MEL-2 melanoma; 21.2 µM and 2.93 µM in the assay on SK-MEL-5 melanoma; 3.6 µM and 3.24 µM in the assay on SK-OV-3 ovarian; 9.99 µM and 3.03 µM in the assay with SNB-19 CNS.

Regarding `COc1ccc(C2=NN(c3ccc(S(N)(=O)=O)cc3)C(c3ccc(Cl)cc3)C2)c(O)c1` (stereo not drawn), the GI50 is 3.58 µM in the assay on ACHN renal; 2.39 µM in the assay on CCRF-CEM leukemia; 2.98 µM in the assay on HCT-15 colon; 3.63 µM in the assay on IGROV1 ovarian; 7.89 µM in the assay on M14 melanoma; 1.92 µM in the assay with MOLT-4 leukemia. In addition, the GI50 with SK-MEL-2 melanoma is 6.3 µM; in the assay on SK-MEL-5 melanoma, 6.24 µM; in the assay with SK-OV-3 ovarian it was 8.23 µM; with SNB-19 CNS, 10.8 µM. Also, the TGI in the assay with ACHN renal worked out at 50.6 µM; in the assay on CCRF-CEM leukemia it was 6.92 µM; in the assay on HCT-15 colon it was 13.9 µM; in the assay on IGROV1 ovarian, 15.2 µM; with M14 melanoma, 25.2 µM; in the assay on MOLT-4 leukemia it was 5.07 µM. The TGI with SK-MEL-2 melanoma was found to be 22.7 µM; with SK-MEL-5 melanoma it was 19.1 µM; in the assay with SK-OV-3 ovarian, 56 µM; in the assay on SNB-19 CNS, 65.1 µM.

For `Cn1c(=O)c2c(nc3n2C(CCl)CO3)n(C)c1=O` (stereo not drawn), the TGI with ACHN renal, in the assay with CCRF-CEM leukemia, in the assay with HCT-15 colon, in the assay with IGROV1 ovarian, with M14 melanoma and with MOLT-4 leukemia was above 100 µM in each case. The TGI with SK-MEL-2 melanoma, in the assay on SK-MEL-5 melanoma, with SK-OV-3 ovarian and in the assay on SNB-19 CNS was above 100 µM in each case.

`C/C=C(\C)C(=O)O[C@@H]1C=CC(=O)O[C@H]1COC(=O)[C@H](C)O`: the GI50 is 6.16 µM with ACHN renal; 0.733 µM with CCRF-CEM leukemia; 5.68 µM in the assay on HCT-15 colon; 7.46 µM in the assay with IGROV1 ovarian; 11.1 µM in the assay on M14 melanoma; 7.31 µM in the assay with MOLT-4 leukemia. For the same compound, the GI50 with SK-MEL-2 melanoma was 17.5 µM; in the assay on SK-MEL-5 melanoma, 12.6 µM; in the assay on SK-OV-3 ovarian, 25.2 µM; with SNB-19 CNS, 19.8 µM. Also, the TGI is 19 µM in the assay with ACHN renal; 17 µM with CCRF-CEM leukemia; 19.5 µM in the assay with HCT-15 colon; 24.6 µM in the assay with IGROV1 ovarian; 30 µM in the assay on M14 melanoma; 28.4 µM in the assay with MOLT-4 leukemia. The TGI in the assay with SK-MEL-2 melanoma is 68.6 µM; with SK-MEL-5 melanoma, 25.1 µM; in the assay with SK-OV-3 ovarian, 88.6 µM; in the assay on SNB-19 CNS, 56 µM.

Regarding `Nc1ncn([C@@H]2C=C(CO)C(O)C2O)c(=O)n1` (stereo partly drawn), the TGI in the assay with ACHN renal, with CCRF-CEM leukemia, with HCT-15 colon, in the assay with IGROV1 ovarian, with M14 melanoma and in the assay on MOLT-4 leukemia was above 100 µM each time. Moreover, the TGI in the assay on SK-MEL-2 melanoma, in the assay with SK-MEL-5 melanoma, in the assay on SK-OV-3 ovarian and with SNB-19 CNS was above 100 µM in each case.

`COc1cccc(C2C3=C(COC3=O)N(CCO)c3cc4c(cc32)CCC4)c1` (stereo not drawn): the GI50 is 0.0622 µM in the assay with ACHN renal; 0.122 µM in the assay with CCRF-CEM leukemia; 0.122 µM with HCT-15 colon; 0.0169 µM with IGROV1 ovarian; 0.0358 µM with M14 melanoma; 0.162 µM in the assay with MOLT-4 leukemia. The GI50 in the assay with SK-MEL-2 melanoma is 0.0255 µM; in the assay with SK-MEL-5 melanoma, 0.0204 µM; with SK-OV-3 ovarian, 0.0663 µM; in the assay on SNB-19 CNS it was 0.0468 µM. Besides, the TGI is above 50 µM in the assay with ACHN renal; above 50 µM in the assay on CCRF-CEM leukemia; above 22.2 µM with HCT-15 colon; 0.0692 µM in the assay with IGROV1 ovarian; 0.208 µM in the assay with M14 melanoma; 1.94 µM in the assay on MOLT-4 leukemia. Besides, the TGI in the assay with SK-MEL-2 melanoma turned out to be 0.239 µM; in the assay on SK-MEL-5 melanoma, 0.436 µM; with SNB-19 CNS, 0.321 µM.

With `O=C(O)Cc1ccccc1`, the GI50 in the assay with ACHN renal, in the assay on CCRF-CEM leukemia, in the assay on HCT-15 colon, with IGROV1 ovarian, in the assay with M14 melanoma and with MOLT-4 leukemia was above 1000 µM each time. The GI50 with SK-MEL-2 melanoma, in the assay with SK-MEL-5 melanoma, in the assay with SK-OV-3 ovarian and with SNB-19 CNS was above 1000 µM in each case. The TGI in the assay with ACHN renal is above 2000 µM; in the assay with CCRF-CEM leukemia it was above 2000 µM; in the assay on HCT-15 colon, > 1000 µM and 1710 µM; with IGROV1 ovarian it was above 2000 µM; in the assay on M14 melanoma, above 2000 µM; with MOLT-4 leukemia, > 1000 µM and 1260 µM. The TGI in the assay with SK-MEL-2 melanoma, with SK-MEL-5 melanoma, in the assay with SK-OV-3 ovarian and in the assay on SNB-19 CNS was above 2000 µM in each case.

The record behind these values is PubChem BioAssay (NCI).
